In US20220025061A1, “COMBINATION THERAPIES FOR TREATING DISEASE USING AN INNATE IMMUNITY MODIFIER AND AN OX40 AGONIST” (BioXcel Therapeutics, Inc., priority 2018, published 2022):

Tests used:
[1] = test system: pro-inflammatory cytokines and chemokines, including IL-18; test: Cytokines and chemokines in the serum of treated animals; format: in vivo, mice; conditions: serum of animals treated with talabostat mesylate alone; data not shown
Experimental: Various cytokines and chemokines in the serum of animals treated with talabostat mesylate alone was also evaluated. […] IL-18 bridges the innate and adaptive immune systems through induction of IFNγ and OX40 (CD134) signaling pathway (Maxwell et al., Journal of Immunology, 2006, 177:234).

MC38 cells = test: MC38 mouse model of colon adenocarcinoma: tumor volume and survival; format: in vivo; conditions: MC38 tumor-bearing C57BL/6 mice
Experimental: Animals: Six to ten week-old female C57BL/6 mice were used in the studies as supplied by Beijing Vital River Laboratory Animal Technology Co., Ltd. Mice received food and water ad libitum. All animals were maintained in a controlled environment with 20-26° C. temperature, 40-70% humidity, and a light/dark cycle of 12 hours each. Up to 5 mice were kept in each cage. The study protocol and procedures involving the care and use of animals were reviewed and approved by the Institutional Animal Care and Use Committee (IACUC) to ensure compliance with the regulations of the Association for Assessment and Accreditation of Laboratory Animal Care (AAALAC).
Reagents and Antibodies: Anti-mouse PD-1 antibody (BioXcell; Lot No./Cat. No./clone: 665418F1/BP0146/RMP1-14) was supplied at a concentration of 7.83 mg/mL and maintained at 4° C. […]
Tumor volumes were measured on Day 10, Day 14, Day 17, Day 21, Day 23, Day 25, Day 28, Day 30, Day 32, Day 35, Day 37, Day 39, Day 42, Day 44, Day 46, Day 49 and Day 51 in two dimensions using a caliper, and the volume was expressed in mm^3 using the formula: V=0.5 a×b^2 where a and b are the length and width of the tumor, respectively.
Statistical Analysis: Data related to tumor volume are presented as mean and the standard error of the mean (SEM). […] Percentage tumor reduction was assessed on Day 23 by using the below formula: […]

Substance: talabostat mesylate
- pro-inflammatory cytokines and chemokines in serum, including IL-18 [1]: stimulated
- median survival (MC38 cells; same dosing as Table 4, vehicle control median survival 30 days): 35 days
- % Tumor Reduction compared to vehicle control on Day 23 (MC38 cells; talabostat mesylate 20 μg/mouse p.o. QD, anti-OX40 Ab 10 mg/kg i.p. twice weekly, anti-PD-1 Ab 5 mg/kg i.p. twice weekly, treatment from Day 11, Day 23): 8.16%
